Source: paper PMC10463376, “Design, synthesis, in vitro anticancer, molecular docking and SAR studies of new series of pyrrolo[2,3-d]pyrimidine derivatives” (BMC Chemistry, 2023)
Values after ≈ are worked out from the molar mass of the structure shown.

How the values were obtained:
MCF7 breast cancer cells = experiment: MTT assay, MCF7
Excerpt: (§1) All of the following steps were done in a sterile Laminar flow class II biosafety cabinet (Baker, SG406INT, Sanford, ME, USA). DMEM was used as a suspension medium for breast cancer (MCF7), colorectal cancer (HCT116), prostate cancer (PC3), liver cancer (HePG2), pancreatic cancer (PACA2) and lung cancer (A549), while normal cell line (BJ1) was suspended in DMEM-F12 medium. The selected cell lines were purchased from American Type Culture Collection (ATCC). The media were supplemented with a 1% antimycotic-antibiotic mixture (10,000 µg/ml streptomycin sulfate, 25 µg/ml Amphotericin B, and 10,000 U/ml Potassium Penicillin) and 1% L-glutamine. 10 × 10^4cells/well were seeded in 96 well microtiter plates and incubated for 24 h at 37 ℃ under 5% carbon dioxide using a water-jacketed Carbon dioxide incubator (Sheldon, SCO5A, OR, USA). […] After the incubation time of 72 h, the medium was removed. Afterward, 40 µl MTT salt ([…]) was added to each well and kept for 4 h under the same conditions of 37 °C and 5% carbon dioxide. Finally, 200 μl of 10% Sodium dodecyl sulfate (SDS) in deionized water was added to each well and incubated overnight at 37 °C. The step of SDS addition was done to stop the reaction and dissolve the formed formazan crystals. The absorbance was then measured at a wavelength of 595 nm and the reference wavelength was set at 620 nm using a microplate multi-well reader (Bio-Rad Laboratories Inc., model 3356, California, USA). […] A statistical significance analysis was determined between the samples and the negative control using an independent t-test by SPSS 11 program. Dimethyl sulfoxide (DMSO) was the vehicle that dissolved our synthesized compounds and its concentration in the cells was less than 0.2%. IC50 values were calculated using the GraphPad Prism 6 program. The degree of selectivity of the synthetic compounds was expressed as SI = IC50 of a pure compound in a normal cell line/IC50 of the same pure compound in the cancer cell line, where IC50 is the concentration of the compound required to kill 50% of the cells.

A549 lung cancer cells = experiment: MTT assay, A549; conditions: for cytotoxicity at 100 µg/mL: read-out: MTT cell proliferation mortality assay (%) A549, at 100 μg/ml, 72 h
Excerpt: as §1

[1] = test system: HCT116 colorectal cancer cells; experiment: MTT assay, HCT116; conditions: Homo sapiens, HCT-116, 72 h, read-out: MTT cell proliferation mortality assay (%) HCT116, at 100 μg/ml, 72 h
Excerpt: as §1

[2] = test system: PC3 prostate cancer cells; experiment: MTT assay, PC3; conditions: Homo sapiens, 72 h, read-out: MTT cell proliferation mortality assay (%) PC3, at 100 μg/ml, 72 h
Excerpt: as §1

HePG2 liver cancer cells = experiment: MTT assay, HePG2; conditions: Homo sapiens, HepG2, 72 h; for IC50: read-out: IC50 HePG2; for cytotoxicity at 100 µg/mL: read-out: MTT cell proliferation mortality assay (%) HePG2
Excerpt: as §1

[3] = test system: PACA2 pancreatic cancer cells; experiment: MTT assay, PACA2; conditions: Homo sapiens, PaCa-2, 72 h, read-out: MTT cell proliferation mortality assay (%) PACA2
Excerpt: as §1

[4] = MTT assay, normal cell line BJ1; type: cell-based; conditions: human, at 100 μg/ml, read-out: MTT cell proliferation mortality assay (%) BJ1
Excerpt: as §1

[5] = Homo sapiens, MCF7, 72 h, read-out: MTT cell proliferation mortality assay (%) MCF7

`NNc1nc(C(Cl)(Cl)Cl)nc2c1c(-c1ccc(Br)cc1)c(Cl)n2-c1ccc(Cl)cc1Cl` [Compound 15, 5-(4-bromophenyl)-6-chloro-7-(2,4-dichlorophenyl)-4-hydrazineyl-2-(trichloromethyl)-7H-pyrrolo[2,3-d]pyrimidine] showed an IC50 (MCF7 breast cancer cells; Homo sapiens, MCF7, 72 h, read-out: IC50 MCF7) of 42.8 ± 0.6 µg/mL (≈ 71.2 µM), a cytotoxicity at 100 µg/mL (MCF7 breast cancer cells; [5]) of 81.2 ± 0.8% and a cytotoxicity (MCF7 breast cancer cells; read-out: MTT cell proliferation mortality assay (%) MCF7, at 100 μg/ml, 72 h) of 80 to 95%. For the same molecule, the IC50 (A549 lung cancer cells; Homo sapiens, A549, 72 h, read-out: IC50 A549) was 54 ± 1.7 µg/mL (≈ 89.9 µM), the cytotoxicity at 100 µg/mL (A549 lung cancer cells; Homo sapiens, A549, 72 h) was 80 to 90% and the cytotoxicity (A549 lung cancer cells; read-out: MTT cell proliferation mortality assay (%) A549, at 100 μg/ml, 72 h) was 84.6 ± 0.4%. For the same molecule, the cytotoxicity at 100 µg/mL [1] was 100%, the cytotoxicity at 100 µg/mL [2] was 65.9 ± 2.4% and the IC50 (HePG2 liver cancer cells) was 29.1 ± 0.5 µg/mL (≈ 48.4 µM). The cytotoxicity at 100 µg/mL (HePG2 liver cancer cells) was 100%, the cytotoxicity at 100 µg/mL [3] was 100% and the cytotoxicity at 72 h, 100 μg/ml [4] was 4.5 ± 0.3%.

Work on `CN1CCN(c2ncnc3c2c(-c2ccc(Br)cc2)c(Cl)n3-c2ccc(Cl)cc2Cl)CC1` [Compound 16a, 5-(4-bromophenyl)-6-chloro-7-(2,4-dichlorophenyl)-4-(4-methylpiperazin-1-yl)-7H-pyrrolo[2,3-d]pyrimidine] yielded a cytotoxicity at 100 µg/mL (MCF7 breast cancer cells; [5]) of 73.6 ± 2.2%, a cytotoxicity at 100 µg/mL (A549 lung cancer cells; Homo sapiens, A549, 72 h) of 3.2 ± 0.5% and a cytotoxicity at 100 µg/mL [1] of 73.2 ± 0.8%. It also gave a cytotoxicity at 100 µg/mL [2] of 3.8 ± 0.3%, a cytotoxicity at 100 µg/mL (HePG2 liver cancer cells) of 100% and a cytotoxicity at 100 µg/mL [3] of 7.5 ± 1.1%. It also gave a cytotoxicity at 72 h, 100 μg/ml [4] of 70.5 ± 0.4%.

For `Clc1ccc(-n2c(Cl)c(-c3ccc(Br)cc3)c3c(N4CCOCC4)ncnc32)c(Cl)c1` [Compound 18a, 4-(5-(4-bromophenyl)-6-chloro-7-(2,4-dichlorophenyl)-7H-pyrrolo[2,3-d]pyrimidin-4-yl)morpholine], the cytotoxicity at 100 µg/mL (MCF7 breast cancer cells; [5]) was 41.2 ± 1.5%, the cytotoxicity at 100 µg/mL (A549 lung cancer cells; Homo sapiens, A549, 72 h) was 22.7 ± 0.9% and the cytotoxicity at 100 µg/mL [1] was 54.2 ± 1.2%. The cytotoxicity at 100 µg/mL [2] was 2.1 ± 0.6%, the cytotoxicity at 100 µg/mL (HePG2 liver cancer cells) was 16.4 ± 1.6% and the cytotoxicity at 100 µg/mL [3] was 31 ± 1.3%. The cytotoxicity at 72 h, 100 μg/ml [4] was 3.2 ± 1.5%.

For `Clc1ccc(-n2c(Cl)c(-c3ccc(Br)cc3)c3c(N4CCOCC4)nc(C(Cl)(Cl)Cl)nc32)c(Cl)c1` [Compound 19, 4-(5-(4-bromophenyl)-6-chloro-7-(2,4-dichlorophenyl)-2-(trichloromethyl)-7H-pyrrolo[2,3-d]pyrimidin-4-yl)morpholine], the cytotoxicity at 100 µg/mL (MCF7 breast cancer cells; [5]) was 62.3 ± 3.4%, the cytotoxicity at 100 µg/mL (A549 lung cancer cells; Homo sapiens, A549, 72 h) was 5.6 ± 0.7% and the cytotoxicity at 100 µg/mL [1] was 35.9 ± 1.5%. It also gave a cytotoxicity at 100 µg/mL [2] of 3.7 ± 1.1%, an IC50 (HePG2 liver cancer cells) of 19.4 ± 0.8 µg/mL (≈ 29.6 µM) and a cytotoxicity at 100 µg/mL (HePG2 liver cancer cells) of 100%. For the same molecule, the cytotoxicity at 100 µg/mL [3] was 31.2 ± 5.1% and the cytotoxicity at 72 h, 100 μg/ml [4] was 52.7 ± 1.4%.
